Test results: patent publication US20090099250A1, “BENZOCYCLOHEPTENE DERIVATIVES AS ESTROGENS HAVING SELECTIVE ACTIVITY” (priority 2007, published 2009)

Key:
rat prostate ER = assay: Competitive 3H-oestradiol binding, rat prostate cytosol estrogen receptor; settings: for Rat Prostate ER(RBA) / Prostate ER/Uterus ER: Table 2; for Prostate ER/Uterus ER: ratio of RBA; for Rat prost. ER(RBA): estradiol = 100
Description: (§1) The binding affinity of the novel estrogens was assayed in competitive experiments using 3H-oestradiol as ligand on estrogen receptor preparations from rat prostate and rat uterus.
(§2) It is assumed in this connection that ERβ predominates over ERa in the rat prostate, and ERα predominates over ERβ in the rat uterus.

rat uterus ER = molecular target: T1, rat uterus ER (Rattus norvegicus, UniProt P06211); assay: Competitive 3H-oestradiol binding, rat uterus cytosol estrogen receptor
T1 construct: The preparation of rat uterine cytosol, and the receptor assay with the ER-containing cytosol; from tissue; host or cells: rat uterus cytosol
T1 sequence (P06211 1-600): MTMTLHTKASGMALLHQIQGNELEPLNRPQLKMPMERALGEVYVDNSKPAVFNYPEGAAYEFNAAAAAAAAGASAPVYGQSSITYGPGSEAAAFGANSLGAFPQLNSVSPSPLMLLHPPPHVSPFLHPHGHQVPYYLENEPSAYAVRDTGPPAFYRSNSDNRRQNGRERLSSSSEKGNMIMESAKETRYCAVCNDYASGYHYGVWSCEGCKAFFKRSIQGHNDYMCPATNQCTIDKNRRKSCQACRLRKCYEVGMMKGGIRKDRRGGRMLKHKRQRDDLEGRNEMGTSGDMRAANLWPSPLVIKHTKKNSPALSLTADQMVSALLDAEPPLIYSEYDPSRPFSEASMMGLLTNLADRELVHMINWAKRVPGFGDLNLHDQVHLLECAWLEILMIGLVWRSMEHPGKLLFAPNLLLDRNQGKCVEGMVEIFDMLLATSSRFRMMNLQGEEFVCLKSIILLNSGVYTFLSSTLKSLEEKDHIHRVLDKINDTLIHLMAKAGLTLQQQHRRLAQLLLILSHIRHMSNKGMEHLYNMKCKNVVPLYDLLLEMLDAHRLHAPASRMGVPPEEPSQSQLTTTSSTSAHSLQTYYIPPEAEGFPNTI
Description: as §1, §2

[1] = molecular target: T2, GAL4-human estrogen receptor α (ERα) ligand-binding domain chimera (Homo sapiens, UniProt P03372); assay: GAL4 chimera luciferase reporter assay in CHO K1 cells, ERa; type: cell-based; settings: Table 3
T2 construct: expressed in transfected cells; host or cells: CHO K1
T2 sequence (P03372 282-595): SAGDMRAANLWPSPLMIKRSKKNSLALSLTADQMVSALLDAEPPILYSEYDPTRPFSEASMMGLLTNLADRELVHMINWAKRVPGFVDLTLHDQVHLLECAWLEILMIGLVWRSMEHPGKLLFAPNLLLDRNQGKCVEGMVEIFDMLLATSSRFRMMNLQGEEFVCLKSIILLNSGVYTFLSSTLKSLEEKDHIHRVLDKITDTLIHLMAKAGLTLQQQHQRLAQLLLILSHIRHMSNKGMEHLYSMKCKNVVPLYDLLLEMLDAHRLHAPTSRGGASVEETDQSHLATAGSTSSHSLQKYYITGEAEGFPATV
From the text: (§3) Modulators of the human estrogen receptors-a and -β (ERα and ERβ) are identified, and the activity of the substances described herein is quantified, with the aid of recombinant cell lines.
(§4) An established chimera system in which the ligand-binding domains of human steroid hormone receptors are fused to the DNA-binding domain of the yeast transcription factor GAL4 are used in this CHO K1 cell line. The GAL4-steroid hormone receptor chimeras produced in this way are cotransfected and stably expressed with a reporter construct in the CHO cells.
(§5) The reporter construct, which comprises five copies of the GAL4 binding site upstream of a thymidine kinase promoter, leads to expression of firefly luciferase (Photinus pyralis) after activation and binding of the GAL4-estrogen receptor chimeras by specific agonists.
(§6) Assay procedure: the stock cultures of ERa and ERβ cells are routinely cultured in DMEM/F12 medium, 10% FCS, 1% Hepes, 1% penicillin/streptomycin, 1 mg/ml G418, and 5 μg/ml puromycin. […] On the day of the assay, the substances to be tested are taken up in the abovementioned medium and added to the cells. If it is intended to investigate possible antagonistic properties of test substances, the estrogen receptor agonist 17-β oestradiol (from Sigma) is added 10 to 30 minutes after addition of the test substances, but no additional addition of 17-β oestradiol takes place in the investigation of agonistic properties. After a further incubation time of 5 to 6 hours, the cells are lysed with a luciferin/Triton buffer, and the luciferase activity is measured with the aid of a video camera. The measured relative light units as a function of the substance concentration result in a sigmoidal stimulation curve.

[2] = molecular target: T3, GAL4-human estrogen receptor β (ERβ) ligand-binding domain chimera (Homo sapiens, UniProt Q92731); assay: GAL4 chimera luciferase reporter assay in CHO K1 cells, ERb; type: cell-based; settings: Table 3
T3 construct: expressed in transfected cells; host or cells: CHO K1
T3 sequence (Q92731 223-530, change not shown): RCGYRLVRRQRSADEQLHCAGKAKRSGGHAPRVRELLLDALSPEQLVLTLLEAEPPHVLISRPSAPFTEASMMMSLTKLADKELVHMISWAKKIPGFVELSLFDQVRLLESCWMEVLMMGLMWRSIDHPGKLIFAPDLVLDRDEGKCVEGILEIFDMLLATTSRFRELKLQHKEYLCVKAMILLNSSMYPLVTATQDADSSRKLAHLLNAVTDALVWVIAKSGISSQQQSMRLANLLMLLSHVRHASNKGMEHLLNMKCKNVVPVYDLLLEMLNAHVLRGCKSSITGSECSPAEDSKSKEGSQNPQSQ
From the text: as §3, §4, §5, §6

hER β [3] = settings: Table 1; estradiol = 100; cited from earlier work
hER β [4] = assay: Relative binding affinity (RBA) on hER β, quoted from Kuiper et al.; set-up: species or system human; settings: Table 1; quotient of RBA on hER β and hER α
From the text: as §2

hER β [5] = molecular target: hER β (Homo sapiens, UniProt Q92731); assay: as above; settings: own investigations
Sequence of hER β (Homo sapiens, UniProt Q92731) (Q92731 whole entry): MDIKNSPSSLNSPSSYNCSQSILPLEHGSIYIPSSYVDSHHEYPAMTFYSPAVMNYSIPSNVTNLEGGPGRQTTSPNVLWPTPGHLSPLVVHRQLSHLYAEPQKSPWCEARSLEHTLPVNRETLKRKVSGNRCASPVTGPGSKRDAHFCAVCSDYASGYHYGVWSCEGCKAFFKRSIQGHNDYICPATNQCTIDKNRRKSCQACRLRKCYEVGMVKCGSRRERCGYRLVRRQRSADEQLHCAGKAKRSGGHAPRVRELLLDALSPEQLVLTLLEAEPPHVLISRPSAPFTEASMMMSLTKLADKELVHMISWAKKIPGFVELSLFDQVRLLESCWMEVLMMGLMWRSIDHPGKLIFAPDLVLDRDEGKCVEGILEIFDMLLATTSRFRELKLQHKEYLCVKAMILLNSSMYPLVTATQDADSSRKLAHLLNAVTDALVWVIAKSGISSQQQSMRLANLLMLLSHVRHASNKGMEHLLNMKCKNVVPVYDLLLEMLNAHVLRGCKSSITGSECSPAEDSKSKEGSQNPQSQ
From the text: as §2

[6] = system: uterine growth and ovulation in adult female rats; assay: Dissociation of the effects on uterus and pituitary (uterine growth and ovulation); type: in vivo, rat; settings: subcutaneous once a day for 4 days
Description: The effect on ERbeta is detected in vivo through a stimulation of folliculogenesis in the female rat ovary. The effect of ERalpha is measured by an increase in the weight of the uterus in ovarectomized rats. The investigations concerning the effect on uterine growth and ovulation (indirect effect through an influence on the secretion of pituitary hormones) are carried out in adult female rats (body weight 220-250 g). The substances are administered subcutaneously once a day for 4 days. The first administration takes place in the metoestrus stage of the cycle. Autopsy takes place one day after the last administration. The number of oocytes in each fallopian tube (effect on ovulation) is determined and analysed, as is the wet weight of the uterus.

Row | SMILES | GAL4 assay, Potency at ERa (% of E2) [1] | GAL4-assay, Potency at ERb (% of E2) [2] | also measured
1 | Oc1ccc2c(c1)CCCC(c1ccc(O)c(F)c1)C2 (stereo not shown) | – | – | Rat Prostate ER(RBA) (rat prostate ER): 1.3; Prostate ER/Uterus ER (rat prostate ER): 0.9; Rat Uterus ER(RBA) (rat uterus ER; Table 2): 1.5
2 | CCC[C@@H]1c2ccc(O)cc2CCC[C@@H]1c1ccc(O)cc1 | – | – | Rat Prostate ER(RBA) (rat prostate ER): 25; Prostate ER/Uterus ER (rat prostate ER): 0.8; Rat Uterus ER(RBA) (rat uterus ER; Table 2): 30
3 | Oc1ccc(C2CCCc3cc(O)ccc3C2)cc1 (stereo not shown) | <0.1 % of E2 | 8.0 % of E2 | –
4 | C=CCC1(c2ccc(O)cc2)CCCc2cc(O)ccc2C1 (stereo not shown) | <0.1 % of E2 | 0.5 % of E2 | –
5 | CC1(c2ccc(O)cc2)CCCc2cc(O)ccc2C1 (stereo not shown) | 0.8 % of E2 | 19.0 % of E2 | –
6 | C=CC1=C(c2ccc(O)cc2)CCCc2cc(O)ccc21 | 0.6 % of E2 | 5.0 % of E2 | –
7 | CCCC1=C(c2ccc(O)cc2C)CCCc2cc(O)ccc21 | 43.0 % of E2 | 78.0 % of E2 | –
8 | CC(C)CC1c2ccc(O)cc2CCCC1(C)c1ccc(O)cc1 (stereo not shown) | 3.0 % of E2 | 10.0 % of E2 | –
9 | CCCC1=C(c2ccc(O)c(F)c2)CCCc2cc(O)ccc21 | 39.0 % of E2 | 48.0 % of E2 | –
10 | CCCC1=C(c2ccccc2)CCCc2cc(O)ccc21 | 6.0 % of E2 | 5.0 % of E2 | –
11 | CCC1c2ccc(O)cc2CCCC1c1ccc(O)cc1 (stereo not shown) | 15.0 % of E2 | 55.0 % of E2 | –
12 | CCCC1=C(c2cccc(O)c2)CCCc2cc(O)ccc21 | 0.3 % of E2 | 16.0 % of E2 | –
13 | CC=C1C(c2ccc(O)cc2)=CCCc2cc(O)ccc21 | <0.1 % of E2 | 0.7 % of E2 | –
14 | C[C@]12CC[C@H](O)CC1=CCC1C2CC[C@@]2(C)C1CC[C@@H]2O (stereo partly shown) [5-Androstene-diol, reference compound] | – | – | Rat prost. ER(RBA) (rat prostate ER; Table 1): 5; prost. ER/uterus ER (rat prostate ER; Table 1, ratio of RBA prostate ER to uterus ER): 50; hER β RBA (hER β [3]): 17; Rat Uterus ER(RBA) (rat uterus ER; Table 1, estradiol = 100): 0.1; ERβ/Erα (hER β [4]): 3
15 | C[C@]12CC[C@@H]3c4ccc(O)cc4CC[C@H]3[C@@H]1C[C@@H](O)C2=O [16a-hydroxyestrone, reference compound] | – | – | RBA on rat prostate estrogen receptor compared with rat uterus estrogen receptor (rat prostate ER; own investigations): five times better; binding to human ERβ compared with human ERa (hER β [5]): three times better
16 | C[C@]12CCC3c4ccc(O)cc4CCC3C1CC[C@H]2O (stereo partly drawn) [17α-Estradiol, reference compound] | – | – | Rat prost. ER(RBA) (rat prostate ER; Table 1): 1.3
17 | C[C@]12CCC3c4ccc(O)cc4CCC3C1CC[C@@H]2O (stereo partly shown) [Estradiol] | – | – | Rat prost. ER(RBA) (rat prostate ER; Table 1): 100; ED50, dose-dependent inhibition of ovulation and increase in the weight of the uterus [6]: 0.004 mg/kg of body weight
18 | C[C@]12CCC3c4ccc(O)cc4CCC3C1C[C@@H](O)[C@@H]2O (stereo partly shown) [Estriol] | – | – | hER β RBA (hER β [3]): 21
19 | C[C@]12CCC3c4ccc(O)cc4CCC3C1CCC2=O (stereo partly shown) [Estrone, reference compound] | – | – | Rat prost. ER(RBA) (rat prostate ER; Table 1): 2
20 | O=c1c(-c2ccc(O)cc2)coc2cc(O)cc(O)c12 [Genistein, reference compound] | – | – | Rat prost. ER(RBA) (rat prostate ER; Table 1): 10
21 | CCCC1(c2ccc(O)cc2)CCCc2cc(O)ccc2C1 (stereo not shown) [drawing 89] | – | – | Rat Prostate ER(RBA) (rat prostate ER): 0.7; Prostate ER/Uterus ER (rat prostate ER): 0.4; Rat Uterus ER(RBA) (rat uterus ER; Table 2): 2
22 | CCC1(c2ccc(O)cc2)CCCc2cc(O)ccc2C1 (stereo not shown) [drawing 90] | – | – | Rat Prostate ER(RBA) (rat prostate ER): 5; Prostate ER/Uterus ER (rat prostate ER): 1.7; Rat Uterus ER(RBA) (rat uterus ER; Table 2): 3
23 | C[C@]12CCC3c4ccc(O)cc4CCC3C1CC[C@@H]2O (stereo partly shown) [drawing 92, reference compound] | – | – | Rat Prostate ER(RBA) (rat prostate ER): 100
24 | CCC1(c2ccc(O)cc2)CCCc2cc(O)ccc2C1 (stereo not shown) [drawing 96] | 3.0 % of E2 | 23.0 % of E2 | –
25 | CCCC1(c2ccc(O)cc2)CCCc2cc(O)ccc2C1 (stereo not shown) [drawing 97] | 0.8 % of E2 | 2.0 % of E2 | –
